Assay results taken from patent US20240116910A1, “Heterocycles as WIP1 Inhibitors” (PMV Pharmaceuticals, Inc., priority 2022, published 2024).

What was measured:
[1] = molecular target: recombinant His-tag Wip1(2-420) protein (amino acids #2-420) (Homo sapiens (Human), UniProt O15297); test: Wip1(2-420) phosphatase enzyme FDP assay; format: biochemical; details: fluorescein diphosphate (FDP) substrate, RT 2 hours, fluorescence Ex485/Em535; read-out: WIP1 (Truncated 2-420) FDP Assay: IC50
[2] = molecular target: recombinant His-tag Wip1 full length protein (amino acids #1-605) (Homo sapiens (Human), UniProt O15297); test: Wip1 full length phosphatase enzyme FDP assay; format: biochemical; details: fluorescein diphosphate (FDP) substrate, RT 2 hours, fluorescence Ex485/Em535
recombinant His-tag Wip1 full length protein (amino acids #1-605), sequence (O15297 whole entry): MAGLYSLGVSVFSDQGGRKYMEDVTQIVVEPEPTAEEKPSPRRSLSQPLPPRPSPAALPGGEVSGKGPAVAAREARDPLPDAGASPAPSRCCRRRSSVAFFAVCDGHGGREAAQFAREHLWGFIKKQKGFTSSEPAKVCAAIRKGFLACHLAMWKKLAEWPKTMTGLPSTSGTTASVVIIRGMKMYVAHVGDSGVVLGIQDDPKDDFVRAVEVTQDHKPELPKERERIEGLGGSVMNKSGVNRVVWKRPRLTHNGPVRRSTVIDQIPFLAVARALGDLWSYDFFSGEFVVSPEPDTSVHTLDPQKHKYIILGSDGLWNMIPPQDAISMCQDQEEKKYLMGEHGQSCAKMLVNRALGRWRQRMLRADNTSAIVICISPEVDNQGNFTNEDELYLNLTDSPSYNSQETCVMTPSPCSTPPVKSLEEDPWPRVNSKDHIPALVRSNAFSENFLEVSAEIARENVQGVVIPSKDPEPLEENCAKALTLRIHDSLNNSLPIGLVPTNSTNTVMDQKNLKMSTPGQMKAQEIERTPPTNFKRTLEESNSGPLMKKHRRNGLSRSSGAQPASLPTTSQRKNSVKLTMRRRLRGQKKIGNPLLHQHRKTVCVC

recombinant His-tag Wip1(2-420) protein (amino acids #2-420), sequence (O15297 2-420): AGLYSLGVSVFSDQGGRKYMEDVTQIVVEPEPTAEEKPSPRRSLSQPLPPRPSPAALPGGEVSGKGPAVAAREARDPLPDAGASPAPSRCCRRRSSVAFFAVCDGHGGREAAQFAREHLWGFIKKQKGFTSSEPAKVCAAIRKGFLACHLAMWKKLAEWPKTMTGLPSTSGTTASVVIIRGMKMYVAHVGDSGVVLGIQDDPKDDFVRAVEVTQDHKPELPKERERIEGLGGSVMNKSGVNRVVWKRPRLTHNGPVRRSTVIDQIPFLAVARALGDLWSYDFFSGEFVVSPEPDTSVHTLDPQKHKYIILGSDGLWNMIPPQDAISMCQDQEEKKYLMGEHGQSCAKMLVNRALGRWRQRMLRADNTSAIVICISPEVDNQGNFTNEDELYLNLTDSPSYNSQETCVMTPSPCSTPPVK

SMILES	IC50 [1] [nM]	IC50 [2] [nM]
C[C@@H](Nc1cc(Cl)cnc1C1CC1)c1ccc(C(=O)N[C@@H](CC2CCCC2)C(=O)NC2CC2)s1 [Compound 71, (2S)-2-({5-[(1R)-1-[(5-chloro-2-cyclopropylpyridin-3-yl)amino]ethyl]thiophen-2-yl}formamido)-3-cyclopentyl-N-cyclopropylpropanamide]	127	215
Cc1ncc(Cl)cc1N[C@@H](C)c1ccc(C(=O)N[C@@H](CC23CC(C2)C3)C(=O)NC2CC2)s1 [Compound 72, (2S)-3-{bicyclo[1.1.1]pentan-1-yl}-2-({5-[(1S)-1-[(5-chloro-2-methylpyridin-3-yl)amino]ethyl]thiophen-2-yl}formamido)-N-cyclopropylpropanamide]	103	136
CNC(=O)[C@H](CC1CCCC1)NC(=O)c1ccc([C@H](C)Nc2cc(Cl)cnc2C)s1 [Compound 74, (2S)-2-({5-[(1S)-1-[(5-chloro-2-methylpyridin-3-yl)amino]ethyl]thiophen-2-yl}formamido)-3-cyclopentyl-N-methylpropanamide]	21	27
CCc1ncc(Cl)cc1N[C@H](C)c1ccc(C(=O)N[C@@H](CC2CCCC2)C(=O)NC2CC2)s1 [Compound 79, (2S)-2-({5-[(1R)-1-[(5-chloro-2-ethylpyridin-3-yl)amino]ethyl]thiophen-2-yl}formamido)-3-cyclopentyl-N-cyclopropylpropanamide]	223	308
Cc1ncc(Cl)cc1NC(C)c1ccc(C(=O)N[C@@H](CC2CCCC2)C(=O)NC23CC(C2)C3)s1 (stereo partly drawn) [Compound 117]	41	70
Cc1cc(NC(=O)[C@H](CC2CCCC2)NC(=O)c2cnc([C@@H](C)Nc3cccc(Cl)c3)s2)cc(C)n1 [Compound 118, (2S)-2-({2-[(1R)-1-[(3-chlorophenyl)amino]ethyl]-1,3-thiazol-5-yl}formamido)-3-cyclopentyl-N-(2,6-dimethylpyridin-4-yl)propanamide]	135	196
Cc1cc(NC(=O)[C@H](CC2CCCC2)NC(=O)c2cnc([C@H](C)Nc3cccc(Cl)c3)s2)ccn1 [Compound 119, (2S)-2-({2-[(1S)-1-[(3-chlorophenyl)amino]ethyl]-1,3-thiazol-5-yl}formamido)-3-cyclopentyl-N-(2-methylpyridin-4-yl)propanamide]	70	115
Cc1cc(NC(=O)[C@H](CC2CCCC2)NC(=O)c2cnc(C(C)Nc3cccc(Cl)c3)s2)ccn1 (stereo partly drawn) [Compound 121, (2S)-2-[(2-{1-[(3-chlorophenyl)amino]ethyl}-1,3-thiazol-5-yl)formamido]-3-cyclopentyl-N-(2-methylpyridin-4-yl)propanamide]	66	19
Cc1cc(NC(=O)[C@H](CC2CCCC2)NC(=O)c2cnc(C(C)Nc3cccc(Cl)c3)s2)cc(C)n1 (stereo partly drawn) [Compound 122, (2S)-2-[(2-{1-[(3-chlorophenyl)amino]ethyl}-1,3-thiazol-5-yl)formamido]-3-cyclopentyl-N-(2,6-dimethylpyridin-4-yl)propanamide]	130	62
CC(Nc1cccc(Cl)c1)c1ncc(C(=O)N[C@@H](CC2CCCC2)C(=O)NC2CC2)s1 (stereo partly drawn) [Compound 123, (2S)-2-[(2-{1-[(3-chlorophenyl)amino]ethyl}-1,3-thiazol-5-yl)formamido]-3-cyclopentyl-N-cyclopropylpropanamide]	159	39
C[C@@H](Nc1cccc(Cl)c1)c1ncc(C(=O)N[C@@H](CC2CCCC2)C(=O)NC2CC2)s1 [Compound 125, (2S)-2-({2-[(1R)-1-[(3-chlorophenyl)amino]ethyl]-1,3-thiazol-5-yl}formamido)-3-cyclopentyl-N-cyclopropylpropanamide]	59	16

These reach a lower IC50 [1]. Values come first.

IC50 [1] [nM]	IC50 [2] [nM]	SMILES
15	22	Cc1ncc(Cl)cc1N[C@@H](C)c1ccc(C(=O)N[C@@H](CC2CCCC2)C(=O)NC2CC3CCC(C2)O3)s1 (stereo partly drawn) [Compound 63, (2S)-2-({5-[(1S)-1-[(5-chloro-2-methylpyridin-3-yl)amino]ethyl]thiophen-2-yl}formamido)-3-cyclopentyl-N-{8-oxabicyclo[3.2.1]octan-3-yl}propanamide]
8	10	Cc1ncc(Cl)cc1N[C@@H](C)c1ccc(C(=O)N[C@@H](CC2CCCC2)C(=O)NC(C)(C)C#N)s1 [Compound 65, (2S)-2-({5-[(1S)-1-[(5-chloro-2-methylpyridin-3-yl)amino]ethyl]thiophen-2-yl}formamido)-N-(1-cyano-1-methylethyl)-3-cyclopentylpropanamide]
6	8	CC[C@H](Nc1cc(Cl)cnc1C)c1ccc(C(=O)N[C@@H](CC2CCCC2)C(=O)NC23CC(C2)C3)s1 [Compound 68, (2S)-N-{bicyclo[1.1.1]pentan-1-yl}-2-({5-[(1S)-1-[(5-chloro-2-methylpyridin-3-yl)amino]propyl]thiophen-2-yl}formamido)-3-cyclopentylpropanamide]
4	7	COc1cc(NC(=O)[C@H](CC2CCCC2)NC(=O)c2ccc([C@H](C)Nc3cc(Cl)cnc3C)s2)ccc1F [Compound 69, (2S)-2-({5-[(1S)-1-[(5-chloro-2-methylpyridin-3-yl)amino]ethyl]thiophen-2-yl}formamido)-3-cyclopentyl-N-(4-fluoro-3-methoxyphenyl)propanamide]
6	8	C[C@H](Nc1cc(Cl)cnc1C1CC1)c1ccc(C(=O)N[C@@H](CC2CCCC2)C(=O)NC2CC2)s1 [Compound 70, (2S)-2-({5-[(1S)-1-[(5-chloro-2-cyclopropylpyridin-3-yl)amino]ethyl]thiophen-2-yl}formamido)-3-cyclopentyl-N-cyclopropylpropanamide]
4	8	Cc1cc(NC(=O)[C@H](CC2CCCC2)NC(=O)c2ccc([C@H](C)Nc3cc(Cl)cnc3C)s2)ccn1 [Compound 73, (2S)-2-({5-[(1S)-1-[(5-chloro-2-methylpyridin-3-yl)amino]ethyl]thiophen-2-yl}formamido)-3-cyclopentyl-N-(2-methylpyridin-4-yl)propanamide]
7	9	Cc1ncc(Cl)cc1N[C@@H](C)c1ccc(C(=O)N[C@@H](CC2CCCC2)C(=O)NC2CC(C)C2)s1 (stereo partly drawn) [Compound 76, (2S)-2-({5-[(1S)-1-[(5-chloro-2-methylpyridin-3-yl)amino]ethyl]thiophen-2-yl}formamido)-3-cyclopentyl-N-(3-methylcyclobutyl)propanamide]
6	10	CCNC(=O)[C@H](CC1CCCC1)NC(=O)c1ccc([C@H](C)Nc2cc(Cl)cnc2C)s1 [Compound 77, (2S)-2-({5-[(1S)-1-[(5-chloro-2-methylpyridin-3-yl)amino]ethyl]thiophen-2-yl}formamido)-3-cyclopentyl-N-ethylpropanamide]
6	7	CCc1ncc(Cl)cc1N[C@@H](C)c1ccc(C(=O)N[C@@H](CC2CCCC2)C(=O)NC2CC2)s1 [Compound 78, (2S)-2-({5-[(1S)-1-[(5-chloro-2-ethylpyridin-3-yl)amino]ethyl]thiophen-2-yl}formamido)-3-cyclopentyl-N-cyclopropylpropanamide]
10	18	CC[C@H](Nc1cc(Cl)cnc1C)c1ccc(C(=O)N[C@@H](CC2CCCC2)C(=O)NC23CC(C#N)(C2)C3)s1 [Compound 80, (2S)-2-({5-[(1S)-1-[(5-chloro-2-methylpyridin-3-yl)amino]propyl]thiophen-2-yl}formamido)-N-{3-cyanobicyclo[1.1.1]pentan-1-yl}-3-cyclopentylpropanamide]
13	20	COc1ncc(Cl)cc1N[C@@H](C)c1ccc(C(=O)N[C@@H](CC2CCCC2)C(=O)NC23CC(C#N)(C2)C3)s1 [Compound 82, (2S)-2-({5-[(1S)-1-[(5-chloro-2-methoxypyridin-3-yl)amino]ethyl]thiophen-2-yl}formamido)-N-{3-cyanobicyclo[1.1.1]pentan-1-yl}-3-cyclopentylpropanamide]
7	11	Cc1cc(NC(=O)[C@H](CC2CCCC2)NC(=O)c2cnc([C@@H](C)Nc3cccc(Cl)c3)s2)ccn1 [Compound 120, (2S)-2-({2-[(1R)-1-[(3-chlorophenyl)amino]ethyl]-1,3-thiazol-5-yl}formamido)-3-cyclopentyl-N-(2-methylpyridin-4-yl)propanamide]
4	9	COc1cc(NC(=O)[C@H](CC2CCCC2)NC(=O)c2ccc([C@H](C)Nc3cc(Cl)cnc3C)s2)ccn1 [Compound 156, (2S)-2-({5-[(1S)-1-[(5-chloro-2-methylpyridin-3-yl)amino]ethyl]thiophen-2-yl}formamido)-3-cyclopentyl-N-(2-methoxypyridin-4-yl)propanamide]
9	13	Cc1ncc(Cl)cc1N[C@@H](C)c1ccc(C(=O)N[C@@H](CCC(C)(C)C)C(=O)Nc2cnn(C)c2)s1 [Compound 160, (2S)-2-({5-[(1S)-1-[(5-chloro-2-methylpyridin-3-yl)amino]ethyl]thiophen-2-yl}formamido)-5,5-dimethyl-N-(1-methyl-1H-pyrazol-4-yl)hexanamide]
6	8	CCn1cc(NC(=O)[C@H](CC2CCCC2)NC(=O)c2ccc([C@H](C)Nc3cc(Cl)cnc3C)s2)cn1 [Compound 162, (2S)-2-({5-[(1S)-1-[(5-chloro-2-methylpyridin-3-yl)amino]ethyl]thiophen-2-yl}formamido)-3-cyclopentyl-N-(1-ethyl-1H-pyrazol-4-yl)propanamide]
5	8	Cc1ncc(Cl)cc1N[C@@H](C)c1ccc(C(=O)N[C@@H](CC2CCCC2)C(=O)Nc2cnn(C3CCOCC3)c2)s1 [Compound 163, (2S)-2-({5-[(1S)-1-[(5-chloro-2-methylpyridin-3-yl)amino]ethyl]thiophen-2-yl}formamido)-3-cyclopentyl-N-[1-(oxan-4-yl)-1H-pyrazol-4-yl]propanamide]
